Measured values: patent publication US12370352B2, “Nasal and ophthalmic delivery of aqueous corticosteroid solutions” (CyDex Pharmaceuticals, Inc., priority 2007, dated 2025)
Counter-ions that a name gives are not always drawn.

What was measured:
[1] = Equilibrium binding constants (K) of corticosteroids with CAPTISOL (Example 46); details: CAPTISOL (0.04 M); in M-1 (unit assumed)
Text: (§1) The binding of a corticosteroid to the SAE-CD can be characterized by its equilibrium binding constant. The higher the binding constant, the more tightly the corticosteroid is bound to the SAE-CD.

[2] = Equilibrium binding constants (K) of corticosteroids with SBE6.1-γ-CD (Example 46); details: (SBE)6.1 γ (0.04 M); in M-1 (unit assumed)
Text: as §1

[3] = format: binding
Procedure: A composition of the invention can comprise SAE-CD, corticosteroid, aqueous liquid carrier, and an antihistamine. In some embodiments, the composition contains SAE-CD, budesonide, water (or aqueous buffer) and azelastine. Example 14 details the preparation of such a composition. Other solutions of azelastine in buffer with varying amounts of SAE-CD, in the absence of budesonide, were prepared and scanned by UV Spectrometer. The change in absorption as a function of SAE-CD concentration was plotted and used to determine the equilibrium binding constant of azelastine with SAE-CD, according to the Benesi-Hildebrand equation. […] The binding constant for budesonide under similar conditions was determined to be about 1000; therefore, azelastine will compete with budesonide, or another corticosteroid, for binding to SAE-CD. Accordingly, the amount of SAE-CD present can be increased to permit complete dissolution of both drugs.
(§2) The equilibrium binding constant of the corticosteroid can change when a second active agent is present in a composition of the invention. Since azelastine hydrochloride (AZ-HCl) has an approximately 10-fold higher binding constant for SBE-β-CD than does budesonide (BUD), the amount of SBE-β-CD present in an aqueous composition of the three needs to be sufficient to solubilize both drugs. Example 19 details a procedure for determination of the phase solubility of budesonide in the presence of varying amounts of azelastine. The results are depicted in FIGS. 11A (for SBE-β-CD) and 11B (for SBE-β-CD and SBE-γ-CD). […] FIG. 11B is a chart of the phase solubility of BUD as a function of SBE-β-CD or SBE-γ-CD concentration in solution using various different concentrations of AZ-HCl (1.00-2.75 mg.mL). […] Thus, increasing the amount of AZ-HCl in the solution decreases the overall solubility of BUD. […] Therefore, it is advantageous to prepare solution compositions of these combinations using SBE-γ-CD due to the efficiency of interaction so as to require less of one SAExCD versus another different SAEyCD to solubilize similar amounts of actives in the presence of each other.

[4] = format: binding; remark: listed apart in the source
Text: as §2

[5] = Stability of budesonide R- and S-isomers with and without SBE7-β-CD (Example 13); format: physicochemical; details: pH 4 and 6, all temperatures (60° C., 80° C.)
Procedure: SAE-CD is also capable of stabilizing the isomers of budesonide to different extents. […] At a given temperature the ratio of rate constants with/without SBE7-β-CD was less at pH 6 than at pH 4. Although SBE7-β-CD stabilized both isomers, the S-isomer appears to be stabilized to an even greater extent than the R. At all temperatures and pHs tested, the ratio of rate constants with/without SBE7-β-CD was lower for the S isomer. The degree of stabilization affected by SBE7-β-CD at 60° C. is greater than at 80° C. An even greater degree of stabilization would be expected at 40° C. and/or room temperature (20-30° C.). […] The loss of budesonide was first order and […]. […] To achieve a concentration of budesonide in the buffers without SBE7-β-CD sufficient for accurate measurement, the budesonide was dissolved first in 100% ethyl alcohol. […] All solution preps and procedures involving budesonide were done in a darkened room under red light. […] The final budesonide concentration was about 50 μg/mL. […] Each solution was aliquoted into individual amber vials. They were then placed in ovens at 60° C. and 80° C. Sample vials were removed from the ovens and analyzed by HPLC at 0, 96, 164, and 288 hours. The HPLC assay conditions are summarized below. […]

[6] = Phase solubility of budesonide in the presence of SAE-CD and azelastine hydrochloride (Example 19); format: physicochemical; details: SBE-β-CD or SBE-γ-CD solutions, pH 4.5 citrate buffer
Text: The equilibrium binding constant of the corticosteroid can change when a second active agent is present in a composition of the invention. Since azelastine hydrochloride (AZ-HCl) has an approximately 10-fold higher binding constant for SBE-β-CD than does budesonide (BUD), the amount of SBE-β-CD present in an aqueous composition of the three needs to be sufficient to solubilize both drugs. Example 19 details a procedure for determination of the phase solubility of budesonide in the presence of varying amounts of azelastine. The results are depicted in FIGS. 11A (for SBE-β-CD) and 11B (for SBE-β-CD and SBE-γ-CD). […] FIG. 11B is a chart of the phase solubility of BUD as a function of SBE-β-CD or SBE-γ-CD concentration in solution using various different concentrations of AZ-HCl (1.00-2.75 mg.mL). […] Thus, increasing the amount of AZ-HCl in the solution decreases the overall solubility of BUD. […]
A stock solution of citrate buffer (3 mM, pH 4.5) was prepared. […] Any budesonide remaining suspended in the solutions was removed by filtration and the concentration of budesonide in each solution measured by HPLC as described herein. […]

[7] = Fluticasone propionate concentration in SBE-Gamma ophthalmic solution, excess drug (Example 36 Method A); format: physicochemical; details: 10% w/v SBE-Gamma (D.S.=6.1), 0.01% TWEEN
Procedure: A citrate buffer solution at a pH of 4.5 was prepared by mixing various portions of 0.003M citric acid with 0.003M of trisodium citrate. A phosphate buffer solution at a pH of 6.0 was prepared by mixing various portions of 0.003M monobasic sodium phosphate with 0.003M of dibasic sodium phosphate. […] An excess of fluticasone propionate was added to the vials and equilibrated on a rocker for three days. The samples were then filtered using a PVDF 0.22 μm syringe filter. Aliquots of the solutions were placed into clear glass 2 mL serum vials with aluminum crimp caps and Daikyo Flurotec septums. […] The concentration of the pH 6.0 solution was 238 μg/mL.

[8] = Phase solubility of corticosteroids with cyclodextrins (Example 23)
[9] = Aqueous budesonide/olopatadine/CAPTISOL solution (Example 47); format: physicochemical
Procedure: An aqueous budesonide/olopatadine solution was prepared. […] Three mM citrate buffer was prepared at pH 4.5. […] Those citrate solutions were mixed to adjust the pH to 4.5. […] The solutions were transferred into 250 mL amber beakers with a magnetic stir disk. The solutions were mixed with a magnetic stir disk at 900 rpm at a temperature of 35° C. Approximately 34 milligrams of budesonide was suspended in each CAPTISOL solution. The samples were mixed with a magnetic stir disk at 900 rpm and 35° C. After 24 hours, the samples were filtered through 0.22 μm PVDF filter. The budesonide in the aliquots was assayed by an HPLC assay method and the concentrations were 340 μg/mL. […] Approximately 27 milligrams of olopatadine HCl was weighed into each of three 2 drams amber vials. The olopatadine HCl was suspended to 4 mL of budesonide/CAPTISOL solutions prepared in Part A. The samples were mixed on a roller mixer at RT. After 24 hours, the samples were filtered through 0.22 μm PVDF filter. The olopatadine and budesonide in the aliquots was assayed by HPLC assay methods, respectively. All olopatadine HCl concentrations were >6.6 mg/mL and all budesonide concentrations were >320 μg/mL. […] Approximately 27 milligrams of olopatadine HCl were weighed into each of three 2 drams amber vials. The olopatadine HCl was suspended to 4 mL of budesonide/CAPTISOL solutions prepared in Part A. The samples were mixed on a roller mixer at RT. After 1 hour, the pH of each sample was adjusted to 4.5 with 1N NaOH. Again, the samples were mixed on a roller mixer at RT. […] All samples were filtered through 0.22 μm PVDF filter. The olopatadine and budesonide in the aliquots were assayed by HPLC assay methods, respectively.

## CCC(=O)OCC(=O)[C@@]1(OC(=O)CC)[C@@H](C)C[C@H]2[C@@H]3CCC4=CC(=O)C=C[C@]4(C)[C@@]3(Cl)[C@@H](O)C[C@@]21C [Beclomethasone dipropionate, beclomethasone dipropionate]
[1]
  Binding Constant- K: 684
[2]
  Binding Constant- K: 2862

## CCCC1O[C@@H]2C[C@H]3[C@@H]4CCC5=CC(=O)C=C[C@]5(C)[C@H]4[C@@H](O)C[C@]3(C)[C@]2(C(=O)CO)O1 (stereo partly drawn) [Budesonide, (R,S)-11β, 16α, 17, 21-tetrahydroxypregna-1,4-diene-3, 20-dione cyclic 16, 17-acetal with butyraldehyde]
[3]
  Equilibrium complex stability constant with SBE-β-CD: 1000 M⁻¹
[4]
  Equilibrium complex stability constant with SBE-γ-CD: 2000 M⁻¹
[5]
  With/without CAPTISOL ratio of degradation rate constants: less than 1
[6]
  Overall solubility of BUD with increasing amount of AZ-HCl: decreases

## CC1(C)O[C@@H]2C[C@H]3[C@@H]4C[C@H](F)C5=CC(=O)C=C[C@]5(C)[C@H]4[C@@H](O)C[C@]3(C)[C@]2(C(=O)CO)O1 [Flunisolide]
[1]
  Binding Constant- K: 590
[2]
  Binding Constant- K: 1104

## CCC(=O)O[C@]1(C(=O)SCF)[C@H](C)C[C@H]2[C@@H]3C[C@H](F)C4=CC(=O)C=C[C@]4(C)[C@@]3(F)[C@@H](O)C[C@@]21C [Fluticasone propionate, fluticasone propionate]
[1]
  Binding Constant- K: 322
[2]
  Binding Constant- K: 3338
[7]; citrate buffer pH 4.5
  Concentration in solution (excess drug, filtered): 232 µg/mL
[7]; phosphate buffer pH 6.0
  Concentration in solution (excess drug, filtered): 238 µg/mL

## C[C@]12CCC(=O)C=C1CC[C@@H]1[C@@H]2[C@@H](O)C[C@@]2(C)[C@H]1CC[C@]2(O)C(=O)CO [Hydrocortisone]
[1]
  Binding Constant- K: 1932
[2]
  Binding Constant- K: 1430

## C[C@@H]1C[C@H]2[C@@H]3CCC4=CC(=O)C=C[C@]4(C)[C@@]3(Cl)[C@@H](O)C[C@]2(C)[C@@]1(OC(=O)c1ccco1)C(=O)CCl [Mometasone Fuorate]
[1]
  Binding Constant- K: 201
[2]
  Binding Constant- K: 551

## C[C@]12C=CC(=O)C=C1CC[C@@H]1[C@@H]2[C@@H](O)C[C@@]2(C)[C@H]1CC[C@]2(O)C(=O)CO [Prednisolone]
[1]
  Binding Constant- K: 1496
[2]
  Binding Constant- K: 1653

## CC1(C)O[C@@H]2C[C@H]3[C@@H]4CCC5=CC(=O)C=C[C@]5(C)[C@@]4(F)[C@@H](O)C[C@]3(C)[C@]2(C(=O)CO)O1 [Triamcinolone acetonide, triamcinolone acetonide]
[8]; SAE-β-CD
  Approximate Molar Ratio at Saturated Solubility of Corticosteroid (SAE-CD:corticosteroid): 8.8
[8]; SAE-γ-CD
  Approximate Molar Ratio at Saturated Solubility of Corticosteroid (SAE-CD:corticosteroid): 3.8

## CN1CCCC(n2nc(Cc3ccc(Cl)cc3)c3ccccc3c2=O)CC1 (stereo not drawn) [azelastine HCL, azelastine hydrochloride]
[3]; AZ-HCl versus BUD
  Binding constant for SBE-β-CD relative to budesonide: approximately 10 fold

## CN(C)CC/C=C1/c2ccccc2COc2ccc(CC(=O)O)cc21 [olopatadine HCl]
[9]; Part B, all CAPTISOL concentrations (5, 7.5, 10% w/v), pH ~3.8
  Olopatadine HCl concentration: > 6.6 mg/mL
[9]; Part C, pH adjusted to 4.5, CAPTISOL 5% w/v (precipitation)
  Olopatadine HCl concentration: 6.5 mg/mL
[9]; Part C, pH adjusted to 4.5, CAPTISOL 7.5 and 10% w/v
  Olopatadine HCl concentration: > 6.6 mg/mL
